This passage reports EC50 results from ChEMBL document CHEMBL5725732, “Aglaroxin C and derivatives as HCV entry inhibitors” (2018).

This test is described as follows: Cell Surface Biotinylation Assay: Huh7.5.1 cells from four 150 mm plates were treated with DMSO, Roc-A (20 nM), or infected by HCVcc. 48 h post-transfection, cells were washed three times with ice-cold PBS and resuspended in PBS at a density of 25×10^6 cells/ml. Freshly prepared Sulfo-NHS-SS-biotin (Pierce) was added to the cells (final concentration […]) and allowed to incubate at 4° C. for 30 min. Cells were then washed three times with ice-cold PBS. 25 mM Tris (pH 8.0) was added in the initial wash to quench any non-reacted biotin reagent. Following cell lysis in RIPA buffer (50 mM Tris-HCl [pH 7.5], 150 mM NaCl, 1% NP-40, 0.25% sodium deoxycholate, 1 mM EDTA, 2 mM Na3VO4 and Pierce protease inhibitor cocktail), lysates were cleared by centrifugation at 13,000×g for 15 min at 4° C. The cleared lysates were used for immunoprecipitation using a 1:1 mixture of Streptavidin beads (Pierce). Beads were washed three times with RIPA buffer, and bound proteins were eluted by boiling the samples in SDS-PAGE sample buffer and then resolved on 9% SDS-PAGE. Biotinylated proteins were detected by anti-PHB1 and anti-PHB2 antibodies. As to conditions: Huh-7.5.1.

`COc1ccc([C@@]23Oc4cc(OC)cc(OC)c4[C@]2(O)c2nc4n(c(=O)c2[C@H]3c2ccccc2)CCC4)cc1` (racemic): the EC50 is 100 nM.
